Legend:
α-adrenergic = experiment: Radioligand binding (displacement of 3H-prazosin), rat cerebral cortex membranes
Experimental: (§1) The selectivity of 2-[N-3-fluoropropyl-N-2-(2 thienyl)ethylamine]-5-hydroxytetralin has been investigated using radioligand binding assays to determine the binding affinity at different receptor types, namely D1 and D2 dopamine and α-adrenergicreceptor sites.
(§2) Membranes derived from bovine striatum (for assaying dopamine receptors) and rat cerebral cortex (for assaying α-adrenergic receptors) were prepared as follows. The tissue was homogenized using a tissue disrupter and centrifuged. The pellet was washed by resuspension and centrifugation. The bovine striatal membranes were […] and thawed just prior to use. […]

D1 -dopamine = target: T1, D1 -dopamine (Bos taurus, UniProt Q95136); experiment: Radioligand binding (displacement of 3H-SCH23390), bovine striatal membranes; settings: bovine striatum membranes
T1 construct: Membranes derived from bovine striatum (for assaying dopamine receptors); from tissue; host or cells: bovine striatum membranes
T1 sequence (Q95136 whole entry): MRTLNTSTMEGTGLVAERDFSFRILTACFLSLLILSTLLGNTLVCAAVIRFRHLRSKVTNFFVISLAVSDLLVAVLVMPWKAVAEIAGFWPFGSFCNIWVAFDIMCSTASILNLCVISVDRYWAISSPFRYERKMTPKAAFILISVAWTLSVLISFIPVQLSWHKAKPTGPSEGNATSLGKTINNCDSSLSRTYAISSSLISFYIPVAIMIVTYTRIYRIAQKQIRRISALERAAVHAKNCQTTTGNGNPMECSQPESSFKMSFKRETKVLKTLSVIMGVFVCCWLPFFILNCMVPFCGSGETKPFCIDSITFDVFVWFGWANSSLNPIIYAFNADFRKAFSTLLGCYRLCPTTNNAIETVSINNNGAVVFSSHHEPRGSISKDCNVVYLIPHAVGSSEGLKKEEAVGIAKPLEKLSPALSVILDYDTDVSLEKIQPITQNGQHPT
Experimental: as §1, §2

D2 -dopamine = target: T2, D2 -dopamine (Bos taurus, UniProt P20288); experiment: Radioligand binding (displacement of 3H-N-0437), bovine striatal membranes
T2 construct: Membranes derived from bovine striatum (for assaying dopamine receptors); from tissue; host or cells: bovine striatum membranes
T2 sequence (P20288 whole entry): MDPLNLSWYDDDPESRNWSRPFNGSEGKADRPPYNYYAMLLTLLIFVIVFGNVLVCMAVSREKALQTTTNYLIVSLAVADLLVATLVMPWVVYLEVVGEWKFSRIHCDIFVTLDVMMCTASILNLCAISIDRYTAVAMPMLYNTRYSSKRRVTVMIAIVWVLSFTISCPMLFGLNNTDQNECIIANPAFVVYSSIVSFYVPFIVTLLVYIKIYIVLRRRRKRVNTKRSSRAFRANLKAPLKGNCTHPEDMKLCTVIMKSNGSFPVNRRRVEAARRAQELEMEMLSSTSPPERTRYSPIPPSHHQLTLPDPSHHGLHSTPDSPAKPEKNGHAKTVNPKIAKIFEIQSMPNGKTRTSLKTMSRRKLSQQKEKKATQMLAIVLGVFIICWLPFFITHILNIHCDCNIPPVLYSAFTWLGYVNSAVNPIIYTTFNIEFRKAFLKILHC
Experimental: as §1
Membranes derived from bovine striatum (for assaying dopamine receptors) and rat cerebral cortex (for assaying α-adrenergic receptors) were prepared as follows. The tissue was homogenized using a tissue disrupter and centrifuged. The pellet was washed by resuspension and centrifugation. The bovine striatal membranes were […] and thawed just prior to use.
The radioligands ^3 H-prazosin, H^3 [((R)-(+)-8 chloro-2, 3, 4, 5-tetrahydro-3-methyl-5-phenyl-H-3-benzazepin-7-ol](^3 H-SCH23390), and H^3 [5-hydroxy-2-(N-n-propyl-N-2-[2-thienyl]ethylamino)tetralin] (^3 H-N-0437) were used to label α-adrenegic, D1 -dopamine and D2 -dopamine receptors, respectively. Increasing concentrations of 2-[N-3-fluoropropyl-N-2-(2-thienyl)ethylamine]-5-hydroxy-tetralin were used to displace the binding of these radioligands from their respective receptors. Competition binding curves were hand drawn to fit the data, and IC50 values were determined graphically. The IC50 value indicates the concentration of test drug required to displace from attachment at the receptor site of interst 50 percent of the ligands of known affinity already in attachment there.

IC50 (α-adrenergic): 5.7 µM
IC50 (D1 -dopamine): > 10 µM
affinity for dopamine D2 receptor sites (in words) (D2 -dopamine): unexpectedly high affinity
IC50 (D2 -dopamine; D2 -dopamine, 3H-N-0437, bovine striatum membranes): 0.00103 ± 0.00049 µM
times more potent in binding to D2 -dopamine receptors than to α-adrenergic receptors (D2 -dopamine; D2 versus α-adrenergic): more than 5000 times
selectivity for D2 -dopamine receptors (in words) (D2 -dopamine; versus D1 and α-adrenergic): selective for D2 -dopamine receptors
Structure (SMILES): Oc1cccc2c1CCC(N(CCCF)CCc1cccs1)C2 (stereo not drawn) [2-[N-3-Fluoropropyl-N-2-(2-thienyl)ethylamino]-5-hydroxytetralin]

Reference: patent US4931270A, “Method for detecting dopaminergic diseases using fluorine-18 radiolabelled D2 dopamine receptor ligands” (Nelson Research & Development, priority 1988, dated 1990)
